Results published in US20240067651A1 (Biohaven Therapeutics Ltd., priority 2019, published 2024).

Key:
[1] = Caco-2 Permeability Assay; type: in vitro ADME, human; conditions: human
Summary of the method: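 Caco-2 monolayers cultured 21 days (TEER >600 […]); test article at 10 μM in HBSS/HEPES pH 7.4 transport medium, dosed apical or basolateral, ±Pgp inhibitor. Incubated 90 min at 37 °C; both compartments quantified by LC-MS/MS. Papp (A→B, B→A), efflux ratio and % recovery calculated.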

[2] = Stability in Simulated Gastric Fluid (SGF); type: in vitro ADME; design: key: % parent compound remaining relative to 0-minute sample
Summary of the method: (§1)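 Compound at 2 μg/mL final was incubated at 37 °C with shaking in SGF with pepsin (pH 1.2) or SIF with pancreatin (pH 6.8), sampled from 0 to 60 min. After acetonitrile precipitation, LC-MS/MS gave % parent remaining vs 0 min; half-life came from ln(% remaining) vs time.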

[3] = Stability in Simulated Intestinal Fluid (SIF); type: in vitro ADME; design: key: % parent compound remaining relative to 0-minute sample
Summary of the method: as §1

Plasma Stability = type: in vitro ADME, human
Summary of the method: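 Compounds incubated at 1 μM in fresh human plasma for 1 hour at 37° C, then protein-precipitated with acetonitrile/formic acid containing internal standard. Remaining parent measured by LC-MS/MS in triplicate, expressed as percent of control remaining.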

[4] = bare number, unit or time not given
[5] = Caco-2, pH 7.4, Caco-2 monolayer
[6] = simulated gastric fluid, remaining at 1 h
[7] = simulated intestinal fluid, remaining at 1 h

Row | SMILES | Papp at 90 min, 10 µM ([1]; Caco-2, pH 7.4) | SGF ([2]; % remaining @ 1 h) | SIF ([3]; % remaining @ 1 h) | human Plasma stability (Plasma Stability; % remaining @ 1 h) | SGF [2, 4] | SIF [3, 4] | Papp at 90 min, 10 µM [1, 5] | SGF [2, 6] | SIF [3, 7] | human Plasma stability (Plasma Stability; human plasma, remaining at 1 h)
1 | CC(C)OCCn1c(SCOC(=O)CCCCOC(=O)CN)nc(=O)c2c1ccn2COC(=O)CCCCOC(=O)CN.O=C(O)C(F)(F)F.O=C(O)C(F)(F)F [Example 331, bis (trifluoroacetic acid) ({5-[{{5-[(2-aminoacetyl)oxy]pentanoyl}oxy)meth-yl]-4-oxo-1-[2-(propan-2-yloxy)ethyl]-1H,4H,5H-pyrrolo[3,2-d]pyrimidin-2-yl}sulfanyl)methyl 5-[(2-aminoacetyl)oxy]pentanoate] | 3.68 ×10⁻⁶ cm/s | 93% @ 1 h | 1% @ 1 h | 1% @ 1 h | – | – | – | – | – | –
2 | CC(C)OCCn1c(=S)n(COC(=O)CCCCOC(=O)CN)c(=O)c2c1ccn2COC(=O)CCCCOC(=O)CN.O=C(O)C(F)(F)F.O=C(O)C(F)(F)F [Example 332, bis (trifluoroacetic acid) {3-[{{5-[(2-aminoacetyl)oxy]pentanoyl}oxy)meth-yl]-4-oxo-1-[2-(propan-2-yloxy)ethyl]-2-sulfanylidene-1H,2H,3H,4H,5H-pyrrolo[3,2-d]pyrimidin-5-yl}methyl 5-[(2-aminoacetyl)oxy]pentanoate] | < 0.073 ×10⁻⁶ cm/s | 91% @ 1 h | 4% @ 1 h | 4% @ 1 h | – | – | – | – | – | –
3 | CC(C)OCCn1c(=S)[nH]c(=O)c2c1ccn2COC(=O)CCCCOC(=O)[C@@H](NC(=O)OC(C)(C)C)C(C)C [Example 333, {4-oxo-1-[2-(propan-2-yloxy)ethyl]-2-sulfanylidene-1H,2H,3H,4H,5H-pyrrolo[3,2-d]pyrimidin-5-yl}methyl 5-{[(2S)-2-{[(tert-butoxy)carbonyl]amino}-3-methylbutanoyl]oxy}pentanoate] | < 0.072 ×10⁻⁶ cm/s | 98% @ 1 h | 4% @ 1 h | 5% @ 1 h | – | – | – | – | – | –
4 | CC(C)OCCn1c(=S)[nH]c(=O)c2c1ccn2COC(=O)CCCCOC(=O)[C@H](Cc1ccccc1)NC(=O)OC(C)(C)C [Example 334, {4-oxo-1-[2-(propan-2-yloxy)ethyl]-2-sulfanylidene-1H,2H,3H,4H,5H-pyrrolo[3,2-d]pyrimidin-5-yl}methyl 5-{[(2S)-2-{[(tert-butoxy)carbonyl]amino}-3-phenylpropanoyl]oxy}pentanoate] | 6.26 ×10⁻⁶ cm/s | – | – | 58% remaining | 90 | 2 | – | – | – | –
5 | CC(C)OCCn1c(=S)[nH]c(=O)c2c1ccn2COC(=O)CCCCOC(=O)[C@@H](N)C(C)C.O=C(O)C(F)(F)F [Example 335, trifluoroacetic acid {4-oxo-1-[2-(propan-2-yloxy)ethyl]-2-sulfanylidene-1H,2H,3H,4H,5H-pyrrolo[3,2-d]pyrimidin-5-yl}methyl 5-{[(2S)-2-amino-3-methylbutanoyl]oxy}pentanoate] | 3.32 ×10⁻⁶ cm/s | – | – | 3% remaining | 99 | 9 | – | – | – | –
6 | CC(C)OCCn1c(SCO)nc(=O)c2[nH]ccc21 [Example 336, 2-[(hydroxymethyl)sulfanyl]-1-[2-(propan-2-yloxy)ethyl]-1H,4H,5H-pyrrolo[3,2-d]pyrimidin-4-one] | 1.82 ×10⁻⁶ cm/s | – | – | 73% remaining | 93 | 6 | – | – | – | –
7 | CC(C)OCCn1c(=S)n(COC(=O)CCCCOC(=O)[C@H](N)C(C)C)c(=O)c2c1ccn2COC(=O)CCCCOC(=O)[C@H](N)C(C)C.O=C(O)C(F)(F)F.O=C(O)C(F)(F)F [Example 339, bis(trifluoroacetic acid) (3-{[(5-{[(2R)-2-amino-3-methylbutanoyl]oxy}pentanoyl)oxy]methyl}-4-oxo-1-[2-(propan-2-yloxy)ethyl]-2-sulfanylidene-1H,2H,3H,4H,5H-pyrrolo[3,2-d]pyrimidin-5-yl)methyl 5-{[(2R)-2-amino-3-methylbutanoyl]oxy}pentanoate] | 3.86 ×10⁻⁶ cm/s | – | – | 44% remaining | 99 | 72 | – | – | – | –
8 | CC(C)OCCn1c(=S)[nH]c(=O)c2c1ccn2COC(=O)CCCCOC(=O)[C@@H](N)Cc1ccccc1.O=C(O)C(F)(F)F [Example 340, trifluoroacetic acid {4-oxo-1-[2-(propan-2-yloxy)ethyl]-2-sulfanylidene-1H,2H,3H,4H,5H-pyrrolo[3,2-d]pyrimidin-5-yl}methyl 5-{[(2S)-2-amino-3-phenylpropanoyl]oxy}pentanoate] | 0.644 ×10⁻⁶ cm/s | – | – | 4% remaining | 100 | 99 | – | – | – | –
9 | CC(C)OCCn1c(=S)[nH]c(=O)c2c1ccn2COC(=O)CCCCOC(=O)[C@H](N)Cc1ccccc1.O=C(O)C(F)(F)F [Example 341, trifluoroacetic acid {4-oxo-1-[2-(propan-2-yloxy)ethyl]-2-sulfanylidene-1H,2H,3H,4H,5H-pyrrolo[3,2-d]pyrimidin-5-yl}methyl 5-{[(2R)-2-amino-3-phenylpropanoyl]oxy}pentanoate] | 0.259 ×10⁻⁶ cm/s | – | – | 1% remaining | 99 | 33 | – | – | – | –
10 | CC(C)C[C@H](N)C(=O)OCCCCC(=O)OCn1ccc2c1c(=O)[nH]c(=S)n2CCOC(C)C.O=C(O)C(F)(F)F [Example 345, trifluoroacetic acid 5-oxo-5-({4-oxo-1-[2-(propan-2-yloxy)ethyl]-2-sulfanylidene-1H,2H,3H,4H,5H-pyrrolo[3,2-d]pyrimidin-5-yl}methoxy)pentyl (2S)-2-amino-4-methylpentanoate] | < 0.0662 ×10⁻⁶ cm/s | 71% remaining | 2% remaining at | 77% remaining | – | – | – | – | – | –
11 | CC(C)C[C@@H](NC(=O)OC(C)(C)C)C(=O)OCCCCC(=O)OCn1ccc2c1c(=O)[nH]c(=S)n2CCOC(C)C [Example 347, 5-oxo-5-({4-oxo-1-[2-(propan-2-yloxy)ethyl]-2-sulfanylidene-1H,2H,3H,4H,5H-pyrrolo[3,2-d]pyrimidin-5-yl}methoxy)pentyl (2R)-2-{[(tert-butoxy)carbonyl]amino}-4-methylpentanoate] | 1.06 ×10⁻⁶ cm/s | 98% remaining | 4% remaining | 16% remaining | – | – | – | – | – | –
12 | CC(C)C[C@@H](N)C(=O)OCCCCC(=O)OCn1ccc2c1c(=O)[nH]c(=S)n2CCOC(C)C.O=C(O)C(F)(F)F [Example 350, trifluoroacetic acid 5-oxo-5-({4-oxo-1-[2-(propan-2-yloxy)ethyl]-2-sulfanylidene-1H, 2H,3H,4H,5H-pyrrolo[3,2-d]pyrimidin-5-yl}methoxy)pentyl (2R)-2-amino-4-methylpentanoate] | – | – | – | – | – | – | 0.0782 ×10⁻⁶ cm/s | 29% remaining | 52% remaining | 44% remaining
13 | CSCC[C@H](NC(=O)OC(C)(C)C)C(=O)OCCCCC(=O)OCn1ccc2c1c(=O)[nH]c(=S)n2CCOC(C)C [Example 352, {4-oxo-1-[2-(propan-2-yloxy)ethyl]-2-sulfanylidene-1H,2H,3H,4H,5H-pyrrolo[3,2-d]pyrimidin-5-yl}methyl 5-{[(2S)-2-{[(tert-butoxy)carbonyl]amino}-4-(methylsulfanyl)butanoyl]oxy}pentanoate] | – | – | – | – | – | – | 2.03 ×10⁻⁶ cm/s | 92% remaining | 9% remaining | 9% remaining
